Tests used:
[1] = tested on: TNF-α production in THP-1 cells; assay: Inhibition of tumor necrosis factor-alpha production in THP-1 cell line (ELISA); assay type: cell-based, human; conditions: for amount of TNF-α produced in THP-1 cells, Average: PMA 25 ng/ml 24 h, then LPS, 24 h, No Drug control 5250; for production of TNF-α in cells (THP-1), result in words: FIG. 2A and Table 1
Experimental: The human THP-1 cell line (ATCC) was prepared and cultured at a temperature of 37° C. and under 5% CO2.
Prepared THP-1 cells were inoculated onto a 96-well plate at the density of 1×10^5, and HL-156A, HL-156B, HL-156C, HL-156D, HL-156E, and HL-156F (all produced by Hanoi BioPharma Inc.) were added at the concentration of 1 μM or 10 μM to the cell culture solution. Thereafter, 25 ng/ml of phorbol 12-myristate 13-acetate (PMA, Sigma-Aldrich) was added to the cell culture solution, and cells were cultured for 24 hours, and then, lipopolysaccharide (LPS) was added thereto to induce an immune response of THP-1 cell. As a negative control, a group in which LPS was not added or a group in which
LPS was added but no drug was added, were used.
THP-1 cells were cultured for 24 hours, and then, the amount of tumor necrosis factor-alpha (TNF-α) in the culture solution by using TNF ELISA kit (Invitrogen) was measured.

CD4 T cell = assay: Effect on T cell activation in vitro: proliferation of CD4 T cell (CTV, flow cytometry); assay type: cell-based, C57BL/6 mice; conditions: T cells activated 3 days with anti-CD3/28 Dynabeads; HL-156A 5, 15, 45 or 135 μM and/or 20 nM rapamycin; FIG. 1A
Source text: (§1) The spleen was harvested from normal C57BL/6 mice (Orient Bio) and the mixture obtained by adding a RPMI solution containing 2% (v/v) fetal bovine serum (FBS) to the spleen tissues was homogenized by using a 40 μm strainer.
(§2) T cells were isolated from the homogenized spleen tissue by using CD90.2 magnetic beads (Miltenyi Biotec). Isolated T cells were labeled using CellTrace™ Violet (CTV). Subsequently, labeled T cells were activated for 3 days by using anti-CD3/28 Dynabeads®.
(§3) During T cells were activated, 5 μM, 15 μM, 45 μM, or 135 μM HL-156A (Hanoi BioPharma Inc.), and/or 20 nM rapamycin (LC Laboratories) were added to identify the effect of HL-156A, or the combination of HL-156A and rapamycin on the proliferation of T cells. […]
(§4) Activated T cells were immunostained by using allophycocyanin (APC)-labeled anti-CD4 antibody (BD Biosciences) and peridinin chlorophyll protein complex (PerCP)-labeled anti-CD8 antibody (eBioscience). Immunostained T cells were analyzed by flow cytometric analysis to identify the surface molecular phenotype thereof. From the results obtained by flow cytometric analysis, the proliferation ratio (%) of the T cell with respect to a material treated on the T cell was calculated, and the proliferation ratio (%) of CD4 T cell and the proliferation ratio (%) of CD8 T cell with respect to a compound are shown in FIGS. 1A and 1B, respectively.

CD8 T cell = assay: Effect on T cell activation in vitro: proliferation of CD8 T cell (CTV, flow cytometry); assay type: cell-based, C57BL/6 mice; conditions: T cells activated 3 days with anti-CD3/28 Dynabeads; HL-156A 5, 15, 45 or 135 μM and/or 20 nM rapamycin; FIG. 1B
Source text: as §1, §2, §3, §4

[2] = tested on: TNF-α production in MH7A cells; assay: Inhibition of tumor necrosis factor-alpha production in synoviocyte MH7A (ELISA); assay type: cell-based, human; conditions: for amount of TNF-α in MH7A culture solution, Average: LPS, 24 h, control 1 (HL156A series), 3.53 (HL156B series); for production of TNF-α in the cells (MH7A), result in words: 0.1, 1, 10 μM, Table 2 and FIG. 2B
Experimental: Human synoviocyte cell line MH7A (provided by Prof. Kim Wan-wook of Catholic University) was prepared and cultured at a temperature of 37° C. and under 5% CO2.
The prepared MH7A cells were inoculated onto a 96-well plate at the density of 3×10^4 cells, and lipopolysaccharide (LPS) was added thereto to induce the immune response of MH7A cells. Then, HL-156A or HL-156B was added at a concentration of 0.1 μM, 1 μM, or 10 μM to the cell culture solution. As a negative control, a group in which LPS was used but no drug was used, was used.
After MH7A cells were cultured for 24 hours, the amount of TNF-α in the culture solution was measured by using a TNF-α ELISA kit (Peprotach).

[3] = tested on: virus-specific CD8+ T cell (GP33+CD8 T cell); design: species or system C57BL/6 mouse; conditions: mouse, in vivo
[4] = tested on: collagen-induced arthritis mouse model; assay: Collagen-induced arthritis mouse model, arthritis score; assay type: in vivo, DBA/1 mouse; conditions: 60 mg/kg intraperitoneally once every two days; mice with average arthritis score of 8; FIG. 5
Experimental: Bovine Type II collagen was dissolved in complete freund's adjuvant (CFA) containing 250 μg per mouse of heat-sterilized Mycobacterium tuberculosis H37Ra (BD Sciences) to prepare a collagen solution.
DBA/1 mouse was immunized by intradermally injecting […] per mouse of the prepared collagen thereinto. On day 21 after the immunization, bovine Type II collagen dissolved in incomplete freund's adjuvant (IFA) was injected subcutaneously into the tail of a mouse in an amount of 100 μg to boost the immune system.
The arthritis score of mice was measured using the following criteria:
Grade 0: swelling or erythema;
Grade 1: mild swelling and erythema, inflammation of the toes;
Grade 2: moderate swelling and erythema confined to the distal to mid-limbs;
Grade 3: extended to the ankle, clear swelling and erythema; and
Grade 4: Severe swelling, erythema, and joint stiffness of ankle, foot, and toes.
A score of 0 to 4 was assigned to each leg, and a maximum of 16 points of arthritis scores were assigned to each mouse.
Mice with an average arthritis score of 8 were randomly selected. The HL-156A compound was diluted in PBS and administered to the selected mice intraperitoneally once every two days with 60 mg/kg body weight of HL-156A compound.

Row | SMILES | amount of TNF-α produced in THP-1 cells, Average ([1]; 1 μM compound) [pg/mL] | amount of TNF-α produced in THP-1 cells, Average ([1]; 10 μM compound) [pg/mL] | production of TNF-α in cells (THP-1), result in words [1] | proliferation of CD4 T cell (CD4 T cell) | proliferation of CD8 T cell (CD8 T cell) | amount of TNF-α in MH7A culture solution, Average ([2]; 0.1 μM compound) | amount of TNF-α in MH7A culture solution, Average ([2]; 1 μM compound) | amount of TNF-α in MH7A culture solution, Average ([2]; 10 μM compound) | production of TNF-α in the cells (MH7A), result in words [2] | differentiation of TCM cells and TEM cells in PBMCs [3] | proliferation of TEFF cells in PBMCs [3] | arthritis score over time [4]
1 | COc1cc(NC(=N)NC(=N)N2CCCCC2)cc(OC)c1 [HL-156F, N1-piperidine-N5-(3,5-dimethoxy)phenyl biguanide] | 6425 | 4650 | inhibited the production of TNF-α |  |  |  |  |  |  |  |  | 
2 | N=C(NC(=N)N1CCCC1)Nc1ccc(OC(F)(F)F)cc1 [HL-156A, N1-pyrrolidine-N5-(4-trifluoromethoxy)phenyl biguanide] | 6750 | 3025 | inhibited the production of TNF-α | significantly inhibited | significantly inhibited | 0.82 | 0.75 | 0.72 | inhibited the production of TNF-α in a concentration-dependent manner | inhibited | promoted | decreased the arthritis score over time
3 | N=C(NC(=N)N1CCCCC1)Nc1ccc(F)cc1 [HL-156C, N1-piperidine-N5-(4-fluoro)phenyl biguanide] | 4825 | 6375 |  |  |  |  |  |  |  |  |  | 
4 | N=C(NC(=N)N1CCCC1)Nc1ccc(C(F)(F)F)cc1 [HL-156B, N1-pyrrolidine-N5-(4-trifluoromethyl)phenyl biguanide] | 6125 | 2875 | inhibited the production of TNF-α |  |  | 3.11 | 2.56 | 2.17 | inhibited the production of TNF-α in a concentration-dependent manner |  |  | 
5 | N=C(NC(=N)N1CCCC1)Nc1ccc(Cl)c(Cl)c1 [HL-156E, N1-pyrrolidine-N5-(3,4-dichloro)phenyl biguanide] | 4725 | 1925 | inhibited the production of TNF-α |  |  |  |  |  |  |  |  | 
6 | N=C(NC(=N)N1CCCCC1)Nc1ccc(-c2nnn[nH]2)cc1 [HL-156D, N1-piperidine-N5-(4-(1H-tetrazole-5-yl))phenyl biguanide] | 6125 | 5150 |  |  |  |  |  |  |  |  |  | 

— patent publication US11826324B2, “Pharmaceutical compositions for preventing or treating inflammatory disease, autoimmune disease, or combination thereof, and method for using same” (INDUSTRY-ACADEMIC COOPERATION FOUNDATION, YONSEI UNIVERSITY, priority 2017, dated 2023)
